The text below walks through data of patent US5126432A, “Calcium channel modulating substances” (Miles Inc., priority 1988, dated 1992).

Entries after “also recorded” stand apart in the source; their conditions may differ.

One series deals with calcium channel. The following applies: known from the art; cited from earlier work.
Series [1] deals with dihydropyridine receptors. The series can be described thus: stability of inhibitory activity to boiling and ashing. The format is physicochemical. The following applies: 270° C. for 3 hours. An excerpt:
This observed differential activity was further evidence of a specific interaction with the dihydropyridine binding site rather than the non-specific reduction of free ligand concentration.
When this fraction was chromatographed on either a Waters Protein Pak-125 or a TSK-250 gel filtration column using 40% acetonitrile in 0.1% TFA as the mobile phase, the activity (as determined in ligand binding assays described in Example 1c) eluted in a volume less than […] fragment (amino acids 61-63) having a molecular weight of 443.

A short description of series [2]: dialysis: binding of free [3H]DHP ligand to the fractions. The following applies: 5 mg inside bag, 0.2 nM [3H]DHP, 25° C. overnight. The procedure:
In order to further determine the specificity of action of a particular fraction (i.e., to insure that the fraction was acting competitively on the dihydropyridine receptor and not simply depleting the free ligand), a determination of the amount of free ligand was done by dialysis as follows.
A […] segment of Spectra-por 7 dialysis tubing (0.46 mL/cm) was washed thoroughly with water to remove EDTA and other chemicals. The molecular weight cut-off of this tubing was 1,000. Dialysis was performed in 16 mm glass tubes placed in a shaker incubator at 25° C. overnight. The volume inside the bag (made from closing the tubing by tying it) was 2.5 mL; the outside volume was 10 mL of 50 mM HEPES buffer, pH 7.0. Experiments were done with the [^3 H]DHP present both inside and outside the bag. The concentration of the [^3 H]DHP ligand used was always 0.2 nM. A control using 5 mg bovine serum albumin (BSA) inside the bag was carried out. […] The brain fractions tested were also 5 mg by weight. Dialysis was carried out in the presence of the cocktail of protease inhibitors described supra present both inside and outside the bag. The experiment was terminated by taking representative aliquots from inside and outside the bag (in triplicate). The cpm were then adjusted for total volume.

With `COC(=O)C1=C(C)NC(C)=C([N+](=O)[O-])C1c1ccccc1C(F)(F)F` (stereo not drawn) [Bay K8644], the “effect on calcium channel current” value in the series with calcium channel is “increases calcium channel current; also recorded: can produce inhibition depending on the precise membrane potential and channel state”.
As to `[Cl-].[Na+]` [NaCl], in series [1], the activity after ashing result is given as “maintained activity upon ashing”.
Regarding “bovine serum albumin: control in dialysis, 5 mg inside the bag”, in series [2], the “binding of [3H]DHP ligand in dialysis” value was “bind [^3 H]DHP ligand hydrophobically”.
